Assay results as given in publication PMC12587545, “Noncytotoxic polymyxin derivatives enhance antibiotic action against multidrug-resistant Gram-negative bacteria” (Antimicrobial Agents and Chemotherapy, 2025).
Values joined by “and” are separate entries in the source; they are usually repeats but may differ in a detail not shown here. Equal values may be shown once.

Experiments:
K. pneumoniae = experiment: Checkerboard assay (antibiotic potentiation); assay type: cell-based, Klebsiella pneumoniae; conditions: for Interpretation: antibiotic + compound 1; for MICantibiotic: antibiotic alone; for Potentiation: of antibiotic by 8 µg/mL (5 µM) compound 1
Experimental: (§1) The interaction between the compounds and the antibiotics was evaluated using the fractional inhibitory concentration (FIC) index. FIC indices of ≤0.5 is synergistic, 0.5 < × ≤ 4 is additive, whereas >4 is antagonistic ([34]).
(§2) Synergy was measured by the FIC index, which is the summation of the individual FICs of the antibiotic and the compound. The FIC is calculated by dividing the MIC of one agent in the presence of another by the MIC of the agent alone. […] The FBS studies were conducted by following a previously published protocol ([29], [50]). The FBS was inactivated by heating at 56°C for 30 min with constant swirling.

P. aeruginosa = experiment: Checkerboard assay (antibiotic potentiation); assay type: cell-based, Pseudomonas aeruginosa; conditions: for MICantibiotic: antibiotic alone
E. cloacae = experiment: Checkerboard assay (antibiotic potentiation); assay type: cell-based, Enterobacter cloacae; conditions: E. cloacae 121887 (colistin-resistant)
Experimental: The interaction between the compounds and the antibiotics was evaluated using the fractional inhibitory concentration (FIC) index. FIC indices of ≤0.5 is synergistic, 0.5 < × ≤ 4 is additive, whereas >4 is antagonistic ([34]). […] .
The bacterial isolates were acquired from ATCC or the Canadian Ward Surveillance (CANWARD) study ([56]). CANWARD isolates were collected from infected patients admitted to participating medical centers across Canada.
(§3) The antibiotic and compounds were serially diluted 2-fold in CAMHB along the x- and y-axis, respectively, on a 96-well plate that was subsequently incubated with equal volumes of bacterial inoculum overnight at 37°C. Wells containing only media were used as negative controls, and wells containing only bacteria were used as positive controls. Synergy was measured by the FIC index, which is the summation of the individual FICs of the antibiotic and the compound. The FIC is calculated by dividing the MIC of one agent in the presence of another by the MIC of the agent alone. Turbidity was confirmed with a Molecular Devices (United States) EMax Plus microplate reader at a wavelength of 590 nm. The FBS studies were conducted by following a previously published protocol ([29], [50]). The FBS was inactivated by heating at 56°C for 30 min with constant swirling.

A. baumannii = experiment: Checkerboard assay (antibiotic potentiation); assay type: cell-based, Acinetobacter baumannii; conditions: for MICantibiotic: antibiotic alone
[1] = test system: MDR Gram-negative bacteria clinical isolates; experiment: Checkerboard assay, summary over strains; assay type: cell-based; conditions: of all 14 clinical isolates; number (%)
Experimental: as §1, §3

E. coli = experiment: Checkerboard assay (antibiotic potentiation); assay type: cell-based, Escherichia coli; conditions: for Interpretation: antibiotic + compound 1; for MICantibiotic + compound: antibiotic MIC with 8 µg/mL (5 µM) compound 1; for MICantibiotic: antibiotic alone; for Potentiation: of antibiotic by 8 µg/mL (5 µM) compound 1
Experimental: as §1, §2

[2] = K. pneumoniae 113250 (colistin-resistant)
[3] = E. coli 94393 (colistin-resistant)
[4] = E. coli 94474 (colistin-resistant)

MICantibiotic + compound (K. pneumoniae; K. pneumoniae 113250 (colistin-resistant), antibiotic MIC with 8 µg/mL (5 µM) compound 1): 0.5 µg/mL | MICantibiotic (K. pneumoniae; [2]): 0.5 µg/mL | MICantibiotic (K. pneumoniae; K. pneumoniae 116381): 8 µg/mL | MICantibiotic + compound (P. aeruginosa; P. aeruginosa 259-96916, antibiotic MIC with 8 µg/mL (5 µM) compound 1): 16 µg/mL | MICantibiotic (P. aeruginosa; P. aeruginosa 259-96916): 512 µg/mL | MICantibiotic + compound (P. aeruginosa; P. aeruginosa 262-101856, antibiotic MIC with 8 µg/mL (5 µM) compound 1): 4 µg/mL | MICantibiotic (P. aeruginosa; P. aeruginosa 262-101856): 16 µg/mL | MICantibiotic + compound (P. aeruginosa; P. aeruginosa 264-105354, antibiotic MIC with 8 µg/mL (5 µM) compound 1): 16 µg/mL | MICantibiotic (P. aeruginosa; P. aeruginosa 264-105354): 128 µg/mL | MICantibiotic + compound (P. aeruginosa; P. aeruginosa 101243 (colistin-resistant), antibiotic MIC with 8 µg/mL (5 µM) compound 1): 256 µg/mL | MICantibiotic (P. aeruginosa; P. aeruginosa 101243 (colistin-resistant)): 512 µg/mL | MICantibiotic + compound (P. aeruginosa; P. aeruginosa 114228 (colistin-resistant), antibiotic MIC with 8 µg/mL (5 µM) compound 1): 8 µg/mL | MICantibiotic (P. aeruginosa; P. aeruginosa 114228 (colistin-resistant)): 8 µg/mL | MICantibiotic + compound (P. aeruginosa; P. aeruginosa PAO1, antibiotic MIC with 8 µg/mL (5 µM) compound 1): 0.5 µg/mL | MICantibiotic + compound (P. aeruginosa; P. aeruginosa PAO1, antibiotic MIC with 8 µg/mL (5 µM) compound 3): 4 µg/mL | MICantibiotic (P. aeruginosa; P. aeruginosa PAO1): 4 µg/mL and 2 µg/mL | MICantibiotic + compound (E. cloacae; antibiotic MIC with 8 µg/mL (5 µM) compound 1): 0.25 µg/mL | MICantibiotic (E. cloacae; antibiotic alone): 0.25 µg/mL | MICantibiotic + compound (A. baumannii; A. baumannii 92247 (colistin-resistant), antibiotic MIC with 4 µg/mL (2 µM) compound 1): 4 µg/mL | MICantibiotic (A. baumannii; A. baumannii 92247 (colistin-resistant)): 8 µg/mL | MICantibiotic + compound (A. baumannii; A. baumannii 110193, antibiotic MIC with 4 µg/mL (2 µM) compound 1): 64 µg/mL | MICantibiotic (A. baumannii; A. baumannii 110193): 256 µg/mL | MICantibiotic + compound (A. baumannii; A. baumannii AB027, antibiotic MIC with 4 µg/mL (2 µM) compound 1): 1024 µg/mL | MICantibiotic (A. baumannii; A. baumannii AB027): 2048 µg/mL | MICantibiotic + compound (A. baumannii; A. baumannii AB031, antibiotic MIC with 4 µg/mL (2 µM) compound 1): >64 µg/mL | MICantibiotic (A. baumannii; A. baumannii AB031): >64 µg/mL | MICantibiotic + compound (A. baumannii; A. baumannii ATCC 17978, antibiotic MIC with 8 µg/mL (5 µM) compound 3): 4 µg/mL | MICantibiotic + compound (A. baumannii; A. baumannii ATCC 17978, antibiotic MIC with ¼ MIC (≤5 µM) of compound 1): 1 µg/mL | MICantibiotic + compound (E. coli; [3]): 0.5 µg/mL | MICantibiotic (E. coli; [3]): 0.5 µg/mL | MICantibiotic + compound (E. coli; [4]): 0.25 µg/mL | MICantibiotic (E. coli; [4]): 0.5 µg/mL
Compound: CC(C)(O/N=C(\C(=O)N[C@@H]1C(=O)N2C(C(=O)[O-])=C(C[n+]3ccccc3)CS[C@H]12)c1csc(N)n1)C(=O)O [Ceftazidime]
Interpretation (K. pneumoniae; [2]): Additive (0.5 < × ≤ 4 is additive) | Potentiation (K. pneumoniae; [2]): 1 fold | Interpretation (K. pneumoniae; K. pneumoniae 116381): Synergy (FIC indices of ≤0.5 is synergistic) | Potentiation (K. pneumoniae; K. pneumoniae 116381): 64 fold | Interpretation (P. aeruginosa; P. aeruginosa 259-96916, antibiotic + compound 1): Synergy (FIC indices of ≤0.5 is synergistic) | Potentiation (P. aeruginosa; P. aeruginosa 259-96916, of antibiotic by 8 µg/mL (5 µM) compound 1): 32 fold | Interpretation (P. aeruginosa; P. aeruginosa 262-101856, antibiotic + compound 1): Synergy (FIC indices of ≤0.5 is synergistic) | Potentiation (P. aeruginosa; P. aeruginosa 262-101856, of antibiotic by 8 µg/mL (5 µM) compound 1): 4 fold | Interpretation (P. aeruginosa; P. aeruginosa 264-105354, antibiotic + compound 1): Synergy (FIC indices of ≤0.5 is synergistic) | Potentiation (P. aeruginosa; P. aeruginosa 264-105354, of antibiotic by 8 µg/mL (5 µM) compound 1): 8 fold | Interpretation (P. aeruginosa; P. aeruginosa 101243 (colistin-resistant), antibiotic + compound 1): Additive (0.5 < × ≤ 4 is additive) | Potentiation (P. aeruginosa; P. aeruginosa 101243 (colistin-resistant), of antibiotic by 8 µg/mL (5 µM) compound 1): 2 fold | Interpretation (P. aeruginosa; P. aeruginosa 114228 (colistin-resistant), antibiotic + compound 1): Additive (0.5 < × ≤ 4 is additive) | Potentiation (P. aeruginosa; P. aeruginosa 114228 (colistin-resistant), of antibiotic by 8 µg/mL (5 µM) compound 1): 1 fold | Interpretation (P. aeruginosa; P. aeruginosa PAO1, antibiotic + compound 1): Synergy (FIC indices of ≤0.5 is synergistic) | Interpretation (P. aeruginosa; P. aeruginosa PAO1, antibiotic + compound 3): Additive (0.5 < × ≤ 4 is additive) | Potentiation (P. aeruginosa; P. aeruginosa PAO1, of antibiotic by 8 µg/mL (5 µM) compound 1): 4 fold | Potentiation (P. aeruginosa; P. aeruginosa PAO1, of antibiotic by 8 µg/mL (5 µM) compound 3): 1 fold | Interpretation (E. cloacae; antibiotic + compound 1): Additive (0.5 < × ≤ 4 is additive) | Potentiation (E. cloacae; of antibiotic by 8 µg/mL (5 µM) compound 1): 1 fold | Interpretation (A. baumannii; A. baumannii 92247 (colistin-resistant), antibiotic + compound 1): Additive (0.5 < × ≤ 4 is additive) | Potentiation (A. baumannii; A. baumannii 92247 (colistin-resistant), of antibiotic by 4 µg/mL (2 µM) compound 1): 2 fold | Interpretation (A. baumannii; A. baumannii 110193, antibiotic + compound 1): Synergy (FIC indices of ≤0.5 is synergistic) | Potentiation (A. baumannii; A. baumannii 110193, of antibiotic by 4 µg/mL (2 µM) compound 1): 4 fold | Interpretation (A. baumannii; A. baumannii AB027, antibiotic + compound 1): Additive (0.5 < × ≤ 4 is additive) | Potentiation (A. baumannii; A. baumannii AB027, of antibiotic by 4 µg/mL (2 µM) compound 1): 2 fold | Interpretation (A. baumannii; A. baumannii ATCC 17978, antibiotic + compound 1): Synergy (FIC indices of ≤0.5 is synergistic) | Interpretation (A. baumannii; A. baumannii ATCC 17978, antibiotic + compound 3): Additive (0.5 < × ≤ 4 is additive) | Potentiation (A. baumannii; A. baumannii ATCC 17978, of antibiotic by 8 µg/mL (5 µM) compound 3): 1 fold | Potentiation (A. baumannii; A. baumannii ATCC 17978, of antibiotic by ¼ MIC (≤5 µM) of compound 1): 16 fold | clinical isolates in which the antibiotic was synergized by compound 1 [1]: 5 (36%) strains | Interpretation (E. coli; [3]): Additive (0.5 < × ≤ 4 is additive) | Potentiation (E. coli; [3]): 1 fold | Interpretation (E. coli; [4]): Additive (0.5 < × ≤ 4 is additive) | Potentiation (E. coli; [4]): 2 fold
